We go through 1 compound from article PMC3412845, “Waking Action of Ursodeoxycholic Acid (UDCA) Involves Histamine and GABAA Receptor Block” (PLoS ONE, 2012).

The subject of one series is TGR5. Further details: method as in PMID 12524422. The settings on record: cited from earlier work.
In a further series the test system is AMPA-receptor. The series can be described thus: Kainate-evoked AMPA-receptor mediated currents in isolated neurons. In kind it is cell-based. The protocol: Recordings from histaminergic neurons in male Wistar rat (22–26 day old) or 30–60 day old mouse (SV129, histidine decarboxylase deficient HDC−/− or their wild type littermates) hypothalamic slices were performed as previously described. Slices were obtained between 9 and 11 a.m. In the beginning of whole-cell voltage clamp recordings TMN neurons were identified with the help of DIC microscopy and electrophysiological criteria as previously described. Inhibitory postsynaptic currents (IPSCs) were evoked by local stimulation through a bipolar stainless-steel stimulating electrode (50 µm; WPI, UK). The stimulation of axonal endings coming to TMN from ventrolateral preoptic area (VLPO) was done as described in [22]. […] Individual neurons were separated by vibrodissociation after brief preincubation with papain from the hypothalamic slices of mice or rats and identified as TMN neurons according to their size and shape. Identification was confirmed post hoc with the single-cell RT-PCR (all data presented in the manuscript were obtained from histidine decarboxylase-expressing neurons), [40]. TMN neurons from HDC−/− mice were identified by the expression of peripherin [16]. […] Membrane potentials were not corrected for liquid junction potential (5.6 mV, calculated with LJPCalc, Barry, 1994). […]

In the next series the target is T1, α1β3γ2L GABAA receptors (UniProt P22723+P28472+P62813).
T1 construct: expressed in transfected cells; host or cells: HEK293
T1 sequence (P62813 28-455): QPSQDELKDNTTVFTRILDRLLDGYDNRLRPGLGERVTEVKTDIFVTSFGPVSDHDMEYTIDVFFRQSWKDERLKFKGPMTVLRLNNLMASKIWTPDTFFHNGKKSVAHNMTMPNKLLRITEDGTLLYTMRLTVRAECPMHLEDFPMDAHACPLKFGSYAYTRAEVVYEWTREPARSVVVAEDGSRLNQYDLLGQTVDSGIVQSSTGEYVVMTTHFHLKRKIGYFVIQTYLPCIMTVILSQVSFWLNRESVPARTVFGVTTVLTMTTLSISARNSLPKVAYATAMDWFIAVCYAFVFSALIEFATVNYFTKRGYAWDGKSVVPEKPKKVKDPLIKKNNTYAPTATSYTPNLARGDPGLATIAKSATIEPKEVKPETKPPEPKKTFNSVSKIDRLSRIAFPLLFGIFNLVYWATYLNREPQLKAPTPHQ
T1 sequence (P28472 26-473): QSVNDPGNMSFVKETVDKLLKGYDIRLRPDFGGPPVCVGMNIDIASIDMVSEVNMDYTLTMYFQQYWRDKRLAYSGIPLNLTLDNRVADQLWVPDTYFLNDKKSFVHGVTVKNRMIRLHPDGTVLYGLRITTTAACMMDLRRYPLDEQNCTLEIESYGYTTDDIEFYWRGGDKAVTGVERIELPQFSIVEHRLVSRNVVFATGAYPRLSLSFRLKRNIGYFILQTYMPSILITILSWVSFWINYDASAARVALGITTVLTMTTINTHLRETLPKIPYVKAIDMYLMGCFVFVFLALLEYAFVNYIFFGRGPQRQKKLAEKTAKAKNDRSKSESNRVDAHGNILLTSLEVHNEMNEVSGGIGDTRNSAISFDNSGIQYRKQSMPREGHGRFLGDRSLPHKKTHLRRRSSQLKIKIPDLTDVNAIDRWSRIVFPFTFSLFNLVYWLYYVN
T1 sequence (P22723 39-474): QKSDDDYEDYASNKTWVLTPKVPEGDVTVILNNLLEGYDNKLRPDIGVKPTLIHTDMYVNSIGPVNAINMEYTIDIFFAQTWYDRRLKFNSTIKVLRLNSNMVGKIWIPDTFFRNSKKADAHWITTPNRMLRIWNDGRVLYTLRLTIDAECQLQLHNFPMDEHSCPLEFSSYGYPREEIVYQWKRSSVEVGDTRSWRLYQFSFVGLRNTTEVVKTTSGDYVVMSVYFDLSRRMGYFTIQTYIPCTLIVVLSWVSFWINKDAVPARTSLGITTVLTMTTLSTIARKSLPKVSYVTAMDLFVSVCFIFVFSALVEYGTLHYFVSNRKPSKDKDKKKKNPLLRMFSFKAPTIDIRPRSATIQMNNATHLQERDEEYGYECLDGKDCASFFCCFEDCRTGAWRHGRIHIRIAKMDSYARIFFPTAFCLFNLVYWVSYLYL
The series can be described thus: Patch-clamp of recombinant α1β3γ2L GABAAR in HEK293 cells. It is filed as cell-based, rat α1, human β3, mouse γ2L. The protocol:
(§1) HEK 293 cells were obtained from DSM (Deutsche Sammlung von Mikroorganismen und Zellkulturen GmbH, DSM, Braunschweig). They were grown and maintained according to published standard protocols. Briefly, cells were grown in minimal essential medium supplemented with 10% fetal bovine serum, 100units/ml penicillin and streptomycin and 2 mM L-glutamine and splitted once per week. Semiconfluent cells were transfected on the third day after splitting with the help of Lipofectamine 2000 (Invitrogen), recordings were done 48–72 hrs after transfection.
(§2) The GABAAR subunit cDNAs, generously donated by G.Gisselmann (rat α1, mouse γ2L, rat β1, β2 and human β3 [26]) and J.H. Steinbach (rat α1V256S [28] and rat α1Q241L [44]), were subcloned into pcDNA3 (Invitrogen, Karlsruhe, Germany) and applied in a ratio 1∶1∶1 for the α1βxγ2L receptor and 1∶1 for α1β3 or β3γ2L receptors. […] For each receptor type patch clamp recordings were obtained from at least three separate transfections. Whole-cell patch clamp recordings were done in a similar extracellular solution as for the native cells (see above) except that the concentration of MgCl2 was reduced to 1.2 mM. Intracellular electrodes contained 140 mM CsCl (instead of KCl), pH adjusted with CsOH. The voltage was held at −40 mV.

Another series concerns the target T2, α1β3 GABAA receptors (UniProt P28472+P62813).
T2 construct: expressed in transfected cells; host or cells: HEK293
Put plainly: Patch-clamp of recombinant α1β3 GABAAR in HEK293 cells. In kind it is cell-based, rat α1, human β3. The protocol:
as §1, §2

For series [1], the system named is TMN neurons (eIPSCs and sIPSCs). The series can be described thus: Spontaneous and evoked IPSCs in TMN neurons in brain slices. It is filed as cell-based, rat. The protocol: Recordings from histaminergic neurons in male Wistar rat (22–26 day old) or 30–60 day old mouse (SV129, histidine decarboxylase deficient HDC−/− or their wild type littermates) hypothalamic slices were performed as previously described. Slices were obtained between 9 and 11 a.m. In the beginning of whole-cell voltage clamp recordings TMN neurons were identified with the help of DIC microscopy and electrophysiological criteria as previously described. Inhibitory postsynaptic currents (IPSCs) were evoked by local stimulation through a bipolar stainless-steel stimulating electrode (50 µm; WPI, UK). The stimulation of axonal endings coming to TMN from ventrolateral preoptic area (VLPO) was done as described in [22]. […] Individual neurons were separated by vibrodissociation after brief preincubation with papain from the hypothalamic slices of mice or rats and identified as TMN neurons according to their size and shape. Identification was confirmed post hoc with the single-cell RT-PCR (all data presented in the manuscript were obtained from histidine decarboxylase-expressing neurons), [40]. TMN neurons from HDC−/− mice were identified by the expression of peripherin [16]. Whole-cell voltage-clamp recordings from isolated neurons were done with an EPC-9 amplifier and TIDA for Windows (HEKA, Lambrecht, Germany) at room temperature. Membrane potentials were not corrected for liquid junction potential (5.6 mV, calculated with LJPCalc, Barry, 1994). The intracellular solution was composed of (in mM) 140 KCl, 2 MgCl2, 0.5 CaCl2, 5 EGTA, 2 ATP and 10 HEPES (pH 7.2 adjusted with NaOH). A fast perfusion technique was used for application of ligands and modulators of fast ionotropic receptors, [41]. […] EC50 is the ligand concentration producing a half-maximal response, [ligand] is ligand concentration, and n is the Hill slope. Hill coefficients were obtained from the slope of the log/log plot of the dose-response curves. […] Steady-state amplitudes of the responses were used for the construction of dose-response plots if not mentioned otherwise.

The target in series [2] is T3, β3 homopentameric GABAA receptors (Homo sapiens, UniProt P28472).
T3 construct: expressed in transfected cells; host or cells: HEK293
T3 sequence (P28472 26-473): as the sequence (P28472 26-473) above
The series can be described thus: Block of spontaneous openings of β3 homopentameric receptors (outward shift of baseline current). It is filed as cell-based. The protocol: as §1, §2

On the set-up of series [3]: method as in PMID 22356133. The conditions noted are these: cited from earlier work.
Series [4] relates to cultured hypothalamic neurons. Put plainly: Microelectrode array (MEA) recordings of cultured hypothalamic neurons. In kind it is cell-based, mouse. The protocol: Primary dissociated cultures of posterior hypothalamus were prepared from newborn mice according to the protocols previously described, [43]. […] Recordings were done between 11th-21st day after plating. […] Signals from all 60 electrodes were simultaneously sampled at 25 kHz, visualized and stored using the standard software […] provided by Multi Channel Systems. Spike detection and analysis was performed offline with the software […] (RESULT Medizinische […], Germany), which uses the agreement coefficient “Cohen's kappa” (κ) to assess the degree of spike and burst synchrony for selected pairs of electrodes. […] In order to describe the distribution of kappa across the whole MEA, we calculated the mean of all kappa-values obtained for pairs of “active” electrodes. At the beginning of experiments the basal medium was replaced by a magnesium-free HEPES-based recording solution (see above) and measurements were started after a 20 min adaptation phase. Every measurement comprised three recordings - control, test substance and washout (second control) - each two minutes long and separated by an intermediate period of 30 seconds.

The target of series [5] is T4, homopentameric β3 GABAA receptors (Homo sapiens, UniProt P28472).
T4 construct: expressed in transfected cells; host or cells: HEK293
T4 sequence (P28472 26-473): as above
Put plainly: Patch-clamp of β3 homopentameric receptors in HEK293 cells, histamine-evoked currents. In kind it is cell-based. The settings on record: histamine 5 mM. The protocol: as §1, §2

A further series deals with GABAA receptor. Put plainly: Voltage dependence of GABAAR block (Woodhull analysis). It is filed as cell-based. The protocol:
Voltage dependence of GABAAR block by UDCA was analysed according to the method of Woodhull, which provides a means of calculating the fraction of the transmembrane field sensed by charged blocking ligand at its acceptor site.

Setting [6] is: read-out: IC50 of block of GABA-evoked steady-state currents.

T2 sequence (P62813 28-455): as the sequence (P62813 28-455) above
T2 sequence (P28472 26-473): as the sequence (P28472 26-473) above

As to `C[C@H](CCC(=O)O)[C@H]1CC[C@H]2[C@@H]3[C@@H](O)C[C@@H]4C[C@H](O)CC[C@]4(C)[C@H]3CC[C@]12C` [UDCA, ursodeoxycholic acid], the “sensitivity of TGR5 to UDCA” value in the series with TGR5 is reported as “rather insensitive”. The AMPA-receptor mediated currents result with AMPA-receptor (100 µM) was “did not affect”. Further, the “AMPA-receptor mediated currents (responses to 150 µM of kainate)” value with AMPA-receptor (up to […]) was “did not affect”. The entries for the “Hill coefficient nH of UDCA block” value (at α1β3γ2L GABAA receptors (maximal GABA); on α1β3 GABAA receptors (maximal GABA); in series [5]) were 0.63, 0.65 and 0.8, respectively. Besides, the IC50 on α1β3γ2L GABAA receptors (setting [6]) was 73 µM; at α1β3 GABAA receptors (setting [6]) it was 81 µM; in series [2] (roughly estimated, read-out: half-maximal effect on outward shift of baseline current) it was approximately 100 µM; in series [5] (read-out: IC50 of block of histamine-evoked currents) it was 7.4 ± 2 µM. Also, in series [1] (30 µM), the “effect on eIPSCs and sIPSCs” value is reported as “ineffective”. The “amplitude of eIPSCs and sIPSCs” value in [1] (100 µM) is “significantly inhibited the amplitude of eIPSCs and sIPSCs in less than half of the neurons”. Also, in series [1] (300 µM, all investigated neurons), the “amplitude and decay time of eIPSCs and sIPSCs” value is recorded as “significant reductions”. The “additivity of outward currents of maximal UDCA (300, 600 µM) and picrotoxin (25 µM)” value in [2] is on record as “not additive”. In addition, the “access to the CNS” value in [3] was “reaches the CNS”. Moreover, the “synchronicity of firing within the hypothalamic network (Cohen's kappa)” value in [4] (UDCA) is “increased”. In addition, the firing frequency entry in [4] (UDCA 10, 30 or 100 µM) is recorded as “not affected”. Further, the “effect on synchronization in the presence of gabazine” value in series [4] (with GABAA receptor antagonist gabazine) was “abolished”. Besides, the “UDCA-induced synchronization of firing with mifepristone and spironolactone” value in [4] (with mifepristone 10 µM and spironolactone 10 µM) is given as “not affected”. Moreover, the “current amplitude at +50 mV in the presence of UDCA” value with GABAA receptor is 69±5 % of control (−50 mV). Also, the “fraction of the transmembrane field sensed at the acceptor site (f)” value in the series on GABAA receptor (Woodhull fit, Eq. 3) is reported as 0.29±0.03. In addition, at GABAA receptor (Woodhull fit, Eq. 3, read-out: KD(0), dissociation constant at 0 mV), the Kd came to 64 µM. The figures for the “stationary GABA current in the presence of UDCA relative to unblocked current” value in the series with GABAA receptor (at +50 mV) and with GABAA receptor (at −50 mV) were 28±2% and 59±2%, respectively.
